Data published in patent US6197963A, “Non-peptide peptidomimetics” (The Trustees of the University of Pennsylvania, priority 1998, dated 2001).
Entries after “also recorded” stand apart in the source; their conditions may differ. Where two headings read alike, the source gives them in different places. Each block holds one compound with its values, some of them ahead of it.

How the values were obtained:
[1] = tested on: SRIF receptors on AtT-20 cells; test: Binding at SRIF receptors of AtT-20 cells (Examples 104-110, Tables 1-3); parameters: species or system mouse; key to AtT-20 cells IC50: DNB: Did Not Bind
NK-1 receptor = NK-1 receptor (Homo sapiens, UniProt P25103); test: Binding at the NK-1 receptor (Examples 109-110)
[2] = target: T1, human neurokinin-1 receptor (NK1R) (Homo sapiens, UniProt P25103); test: Displacement of 125I-substance P from human NK1R expressed in COS cells (Example 12); type: binding; conditions: 125I-substance P, COS cells (Example 12)
T1 construct: expressed in transfected cells; host or cells: COS cells
Description: The affinity of a variety of compounds for the substance P receptor was determined employing the following procedure.
To express the cloned human neurokinin-1 receptor (NK1R) transiently in COS, the cDNA for the human NK1R was cloned into the expression vector pCDM9 which was derived from pCDM8 (Invitrogen) by inserting the ampicillin resistance gene (nucleotide 1973 to 2964 from Bluescript SK+) into the Sac II site. Transfection of 20 μg of the plasmid DNA into 10 million COS cells was achieved by electroporation in 800 μl of the transfection buffer ([…], 1.2 mM MgCl2, 2.4 mM K2 HPO4, 0.6 mM KH2PO4, […], 10 mM HEPES pH 7.4) at 260 V and 950 μF using the IBI Genezapper (IBI, New Haven, Conn.). The cells were incubated in 10% fetal calf serum, 2 mM glutamine, 100 U/ml penicillin-streptomycin, and 90% DMEM media (Gibco, Grand Island, N.Y.) in 5% CO2 at 37° C. for three days before the binding assay.
The binding assay of human NK1R expressed in COS cells is based on the use of ^125 I-substance P (^125 I-SP, from DuPont, Boston, Mass.) as a radioactively labeled ligand which competes with unlabeled substance P or any other ligand for binding to the human NK1R. Monolayer cell cultures of COS were dissociated by the non-enzymatic solution (Specialty Media, Lavallette, N.J.) and resuspended in appropriate volume of the bind buffer (50 mM Tris pH 7.5, 5 mM MnCl2, 150 mM NaCl, 0.04 mg/ml bacitracin, 0.004 mg/ml leupeptin, 0.2 mg/ml BSA, 0.01 mM phosphoramidon) such that 200 μl of the cell suspension would give rise to about 10,000 cpm of specific ^125 I-SP binding (approximately 50,000 to 200,000 cells). In the binding assay, 200 μl of cells were added to a tube containing 20 μl of 1.5 to 2.5 nM of ^125 I-SP and 20 μl of unlabeled substance P or any other test compound. The tubes were incubated at 4° C. or at room temperature for 1 hour with gentle shaking. The bound radioactivity was separated from unbound radioactivity by GF/C filter (Brandel, Gaithersburg, Md.) which was pre-wetted with 0.1 polyethylenimine. The filter was washed with 3 ml of wash buffer (50 Tris pH 7.5, 5 mM MnCl2, 150 mM NaCl) three times and its radioactivity was determined by gamma counter.
A variety of compounds were tested according to the COS cell procedure. The concentration of compound required to inhibit the binding of substance P to the human neurokinin-1 receptor by 50% was measured.

hSSTR1 = hSSTR1 (Homo sapiens, UniProt P30872); test: Binding at human SRIF receptor subtype hSSTR1
hSSTR4 = hSSTR4 (Homo sapiens, UniProt P31391); test: Binding at human SRIF receptor subtype hSSTR4
hSSTR5 = hSSTR5 (Homo sapiens, UniProt P35346); test: Binding at human SRIF receptor subtype hSSTR5; conditions: for Ki: TABLE 3, read-out: hSSTR 5 Ki
hSSTR3 = hSSTR3 (Homo sapiens, UniProt P32745); test: Binding at human SRIF receptor subtype hSSTR3
five hSSTRs = test: Profile / average over the five human SRIF receptor subtypes; type: binding
hSSTR2 = hSSTR2 (Homo sapiens, UniProt P30874); test: Binding at human SRIF receptor subtype hSSTR2
SRIF receptor = test: Displacement of 125I-CGP-23996 from SRIF receptor on AtT-20 cells (Example 13); type: binding, mouse; conditions: displacement of 125I-CGP-23996, AtT-20 cells (Example 13)
[3] = TABLE 1 (Example 105), read-out: AtT-20 cells 50 IC
[4] = TABLE 3 (Example 108), read-out: AtT-20 IC50
[5] = read-out: IC50 at AtT-20 cell membranes
[6] = read-out: IC50 at the NK-1 receptor

Chain of hSSTR2 (P30874 whole entry): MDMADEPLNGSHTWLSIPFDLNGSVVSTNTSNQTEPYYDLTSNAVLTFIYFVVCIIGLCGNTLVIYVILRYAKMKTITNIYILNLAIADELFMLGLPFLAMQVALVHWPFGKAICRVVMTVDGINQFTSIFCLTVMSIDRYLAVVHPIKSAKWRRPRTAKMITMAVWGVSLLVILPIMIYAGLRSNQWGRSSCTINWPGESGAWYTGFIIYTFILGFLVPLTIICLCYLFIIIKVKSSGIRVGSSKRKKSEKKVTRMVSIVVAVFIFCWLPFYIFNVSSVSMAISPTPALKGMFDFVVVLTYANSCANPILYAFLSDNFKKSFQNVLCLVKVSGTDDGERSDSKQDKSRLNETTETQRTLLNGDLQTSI
Chain of hSSTR5 (P35346 whole entry): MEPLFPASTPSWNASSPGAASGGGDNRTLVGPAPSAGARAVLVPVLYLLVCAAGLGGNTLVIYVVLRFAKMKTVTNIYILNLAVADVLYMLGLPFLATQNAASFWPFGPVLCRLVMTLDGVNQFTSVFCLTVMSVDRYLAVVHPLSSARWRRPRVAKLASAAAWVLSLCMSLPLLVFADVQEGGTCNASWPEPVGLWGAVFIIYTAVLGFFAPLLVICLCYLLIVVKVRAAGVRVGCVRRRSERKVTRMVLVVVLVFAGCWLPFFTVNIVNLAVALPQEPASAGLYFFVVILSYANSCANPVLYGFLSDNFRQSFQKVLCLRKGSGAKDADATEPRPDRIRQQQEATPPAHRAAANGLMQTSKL
Chain of hSSTR4 (P31391 whole entry): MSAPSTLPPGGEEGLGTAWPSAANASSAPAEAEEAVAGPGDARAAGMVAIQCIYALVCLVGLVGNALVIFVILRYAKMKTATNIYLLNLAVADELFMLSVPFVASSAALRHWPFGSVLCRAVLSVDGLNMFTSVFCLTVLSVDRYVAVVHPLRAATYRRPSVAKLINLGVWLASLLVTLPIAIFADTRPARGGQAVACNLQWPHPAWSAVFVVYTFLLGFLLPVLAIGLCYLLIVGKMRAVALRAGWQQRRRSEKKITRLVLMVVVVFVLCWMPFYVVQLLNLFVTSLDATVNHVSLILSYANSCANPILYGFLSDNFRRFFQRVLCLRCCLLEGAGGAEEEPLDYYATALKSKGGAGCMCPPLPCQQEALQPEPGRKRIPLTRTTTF
Chain of hSSTR1 (P30872 whole entry): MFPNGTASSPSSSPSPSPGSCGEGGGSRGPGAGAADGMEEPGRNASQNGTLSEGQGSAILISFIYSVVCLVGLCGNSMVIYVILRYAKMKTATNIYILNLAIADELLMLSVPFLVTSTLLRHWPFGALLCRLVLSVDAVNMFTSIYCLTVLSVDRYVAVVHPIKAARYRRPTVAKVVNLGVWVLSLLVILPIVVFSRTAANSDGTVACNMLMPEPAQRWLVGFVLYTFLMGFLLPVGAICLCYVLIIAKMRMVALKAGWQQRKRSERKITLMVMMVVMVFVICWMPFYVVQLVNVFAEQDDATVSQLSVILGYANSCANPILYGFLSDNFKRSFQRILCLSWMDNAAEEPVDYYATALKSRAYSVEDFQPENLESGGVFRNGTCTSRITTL
Chain of NK-1 receptor (P25103 whole entry): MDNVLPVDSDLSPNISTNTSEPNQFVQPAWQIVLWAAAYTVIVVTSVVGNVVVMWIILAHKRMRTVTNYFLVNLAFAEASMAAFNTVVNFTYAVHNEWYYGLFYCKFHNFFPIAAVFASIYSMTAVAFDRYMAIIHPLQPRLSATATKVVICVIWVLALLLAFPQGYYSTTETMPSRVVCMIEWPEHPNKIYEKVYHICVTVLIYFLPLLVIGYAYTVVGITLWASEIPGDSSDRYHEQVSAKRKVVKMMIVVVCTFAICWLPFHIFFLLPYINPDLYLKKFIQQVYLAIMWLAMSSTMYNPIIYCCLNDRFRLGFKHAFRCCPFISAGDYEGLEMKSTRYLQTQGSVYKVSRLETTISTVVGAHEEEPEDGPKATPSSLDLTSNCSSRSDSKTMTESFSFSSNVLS
Chain of hSSTR3 (P32745 whole entry): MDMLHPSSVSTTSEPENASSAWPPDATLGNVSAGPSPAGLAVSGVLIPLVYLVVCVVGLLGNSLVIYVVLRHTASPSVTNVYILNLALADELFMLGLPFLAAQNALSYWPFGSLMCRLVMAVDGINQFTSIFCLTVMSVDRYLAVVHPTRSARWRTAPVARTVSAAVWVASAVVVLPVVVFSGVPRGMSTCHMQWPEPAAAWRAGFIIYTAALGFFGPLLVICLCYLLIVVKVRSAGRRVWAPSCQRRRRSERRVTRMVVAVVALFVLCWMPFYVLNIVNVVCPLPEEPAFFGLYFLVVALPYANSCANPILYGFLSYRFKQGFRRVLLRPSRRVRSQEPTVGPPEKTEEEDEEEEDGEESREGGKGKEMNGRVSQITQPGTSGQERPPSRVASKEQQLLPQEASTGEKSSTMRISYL
T1 sequence (P25103 whole entry): as the sequence (P25103 whole entry) above

SMILES: NCCCCCCOC[C@H]1O[C@@H](OCCc2c[nH]c3ccccc23)[C@H](OCc2ccccc2)C[C@@H]1OCc1ccccc1 [III-5b, 2-(1H-Indol-3-yl)ethyl 2,4-Di-O-benzyl-3-deoxy-6-O-(6-aminohexyl)-β-D-glucopyranoside]
- IC50 [1, 3]: 7000 nM

SMILES: Fc1ccc(CO[C@H]2[C@H](OCCc3c[nH]c4ccccc34)O[C@H](COCc3ccc4ccccc4c3)[C@@H](OCc3ccccc3)[C@@H]2OCc2ccccc2)cc1 [IV-84, (+)-2-(1H-inclol-3-yl) ethyl-3, li-di-O-Benzyl 2-O-(4-fluorobenzyl)-B-D-glucopyranoside]
- binding of the NK-1 receptor (NK-1 receptor): did not bind the NK-1 receptors

SMILES: CO[C@@H]1O[C@H](COCCCCCN)C[C@H](OCc2ccccc2)[C@H]1OCc1ccccc1 [III-10, Methyl 2,3-Di-O-benzyl-4-deoxy-6-O-(5-aminopentyl)-β-D-glucopyranoside]
- activity / affinity at SRIF receptors of AtT-20 cells [1]: inactive
- IC50 [1, 3]: > 10000 nM

SMILES: OC[C@@H]1C[C@H](OCc2ccccc2)[C@@H](OCc2ccccc2)[C@H](OCCc2c[nH]c3ccccc23)O1 [2-Indol-3-yl-ethyl-2,3,-di-O-benzyl-4-deoxy-β-D-glucopyranoside]
- IC50 [2]: 400 nM

SMILES: NCCCCCOC[C@H]1O[C@@H](OCCc2c[nH]c3ccccc23)[C@H](OCc2c[nH]cn2)C[C@@H]1OCc1ccccc1 [IV-60, 2-(1H-Indol-3-yl)ethyl 2-O-(4'-methylene-1H-imidazole)-3-deoxy-4-O-benzyl-6-O-(5'-aminopentyl)-β-D-glucopyranoside]
- Ki (hSSTR1; TABLE 3, read-out: hSSTR 1 Ki): 6800 nM
- Ki (hSSTR4; TABLE 3, read-out: hSSTR 4 Ki): 3000 nM
- Ki (hSSTR5): 4000 nM
- Ki (hSSTR3; TABLE 3, read-out: hSSTR 3 Ki): 6200 nM
- IC50 [1, 4]: 4100 nM
- hSSTR subtype affinity profile (five hSSTRs): atypically high affinity for hSSTR5
- Ki (hSSTR2; TABLE 3, read-out: hSSTR 2 Ki): 4600 nM

SMILES: NCCCCCOC[C@@H]1O[C@H](OCCc2c[nH]c3ccccc23)[C@H](OCc2c[nH]cn2)[C@H](OCc2ccccc2)[C@H]1OCc1ccccc1 [IV-72, 2-(1H-indol-3-yl)ethyl 2-O-(4'-methylene-1H-imidazole)-3,4-di-O-benzyl-6-O-(5'-amino-pentyl)-β-L-mannopyranoside]
- Ki (hSSTR1; TABLE 3, read-out: hSSTR 1 Ki): 300 nM
- Ki (hSSTR1; read-out: Ki at SSTR 1): 300 nM
- Ki (hSSTR4; TABLE 3, read-out: hSSTR 4 Ki): 100 nM
- Ki (hSSTR4; read-out: Ki at SSTR 4): 100 nM
- binding of SSTR5 (hSSTR5): failed to bind SSTR5
- Ki (hSSTR5): > 10000 nM
- Ki (hSSTR3; TABLE 3, read-out: hSSTR 3 Ki): 900 nM
- Ki (hSSTR3; read-out: Ki at SSTR 3): 900 nM
- Ki (hSSTR2; TABLE 3, read-out: hSSTR 2 Ki): 800 nM
- Ki (hSSTR2; read-out: Ki at SSTR 2): 800 nM

SMILES: NCCCCCOC[C@@H]1O[C@H](OCCc2c[nH]c3ccccc23)[C@@H](OCc2ccccc2)[C@H](OCc2ccccc2)[C@H]1OCc1ccccc1 [IV-11, 2-(1H-Indol-3-yl)ethyl 2,3,4-tri-O-benzyl-6-O-(5'-aminopentyl)-β-L-glucopyranoside]
- IC50 (NK-1 receptor; [6]): 150 nM
- Ki (hSSTR4; TABLE 3, read-out: hSSTR 4 Ki): 2000 nM
- Ki (hSSTR3; TABLE 3, read-out: hSSTR 3 Ki): 6400 nM
- hSSTR subtype affinity profile (five hSSTRs): high affinities for hSSTR2 and hSSTR4 and a low affinity for SSTR1; also recorded: higher relative affinity for SSTR5 and a lesser relative affinity for SSTR3

SMILES: Fc1ccc(COC[C@H]2O[C@@H](OCCc3c[nH]c4ccccc34)[C@H](OCc3ccc4ccccc4c3)[C@@H](OCc3ccccc3)[C@@H]2OCc2ccccc2)cc1 [IV-79, (+)-2-(1H-indol-3-yl)ethyl-3,4-di-O-benzyl-6-O-(4-fluorobenzyl)-2-O-(2-naphthyl)methyl-β-D-glucopyranoside]
- binding of the NK-1 receptor (NK-1 receptor): did not bind the NK-1 receptors

SMILES: CC(=O)NCCCCCOC[C@H]1O[C@@H](OCCc2c[nH]c3ccccc23)[C@H](OCc2ccccc2)[C@@H](OCc2ccccc2)[C@@H]1O [IV-99, (-)-2-(1H-indol-3-yl)ethyl-6-O-(N-acetyl-5-aminopentyl)-2,3-di-O-benzyl-β-D-glucopyranoside]
- IC50 (NK-1 receptor; read-out: affinity at the NK-1 receptor): 27 nM

SMILES: CC(C)[C@@H]1NC(=O)[C@H](CCCCN)NC(=O)[C@@H](Cc2c[nH]c3ccccc23)NC(=O)[C@H](Cc2ccc(O)cc2)NC(=O)[C@H](C)N(C)C(=O)[C@H](Cc2ccccc2)NC1=O [MK 678, reference compound]
- IC50 (SRIF receptor; read-out: IC50): 60 nM

SMILES: CO[C@@H]1O[C@H](COCCCCCN)[C@@H](OCc2ccccc2)[C@H](OCc2c[nH]cn2)[C@H]1OCc1ccccc1 [IV-39, Methyl 2,4-di-O-benzyl-3-O-(4'-methylene-1H-imidazole)-6-O-(5'-aminopentyl)-β-D-glucopyranoside]
- IC50 [1, 3]: 5600 nM
- IC50 [1, 5]: 5600 nM

The next lines start with results.

- Ki (hSSTR1; TABLE 3, read-out: hSSTR 1 Ki): 2400 nM
- Ki (hSSTR4; TABLE 3, read-out: hSSTR 4 Ki): 2000 nM
- Ki (hSSTR5): 3000 nM
- Ki (hSSTR3; TABLE 3, read-out: hSSTR 3 Ki): 3000 nM
- IC50 [1, 3]: 5900 nM
- IC50 [1, 4]: 5900 nM
- IC50 [1, 5]: 5900 nM
- hSSTR subtype affinity profile (five hSSTRs): highest affinity for hSSTR4
- Ki (hSSTR2; TABLE 3, read-out: hSSTR 2 Ki): 4600 nM
SMILES: CO[C@@H]1O[C@H](COCCCCCN)[C@@H](OCc2ccccc2)[C@H](OCc2ccccc2)[C@H]1OCc1ccccc1 [III-8a, Methyl 2,3,4-Tri-O-benzyl-6-O-(5-aminopentyl)-β-D-glucopyranoside]

- IC50 (SRIF receptor): does not bind
- IC50 [2]: 1000 nM
SMILES: CO[C@@H]1O[C@H](CO)[C@@H](OCc2ccccc2)[C@H](OCc2ccccc2)[C@H]1OCc1ccccc1 [III-46]

- Ki (hSSTR1; TABLE 3, read-out: hSSTR 1 Ki): 2100 nM
- affinity at SSTR 4 (hSSTR4): submicromolar affinities
- Ki (hSSTR4; TABLE 3, read-out: hSSTR 4 Ki): 500 nM
- Ki (hSSTR5): 1300 nM
- affinity at SSTR 3 (hSSTR3): submicromolar affinities
- Ki (hSSTR3; TABLE 3, read-out: hSSTR 3 Ki): 600 nM
- AtT-20 cells IC50 ([1]; TABLE 2 (Example 106)): DNB
- IC50 [1, 4]: 13000 nM
- Ki (five hSSTRs; average over hSSTRs): 1000 nM
- affinity at SSTR 2 (hSSTR2): submicromolar affinities
- Ki (hSSTR2; TABLE 3, read-out: hSSTR 2 Ki): 600 nM
SMILES: NCCCCC(N)NC[C@H]1O[C@@H](OCCc2c[nH]c3ccccc23)[C@H](OCc2ccccc2)[C@@H](OCc2ccccc2)[C@@H]1OCc1ccccc1 (stereo partly drawn) [IV-42, 2-(1H-indol-3-yl)ethyl 2,3,4-tri-O-benzyl-6-N-(1',5'-diamino-pentyl)-β-D-glucopyranoside]
- activity / affinity at SRIF receptors of AtT-20 cells [1]: did not result in an increase in affinity

- IC50 [1, 3]: > 10000 nM
SMILES: CO[C@@H]1O[C@H](COCCCCCN)[C@@H](OCc2ccccc2)[C@H](OCc2ccccc2)[C@H]1OCc1c[nH]cn1 [IV-30, Methyl 2-O-(4'-methylene-1H-imidazole)-3,4-di-O-benzyl-6-O-(5'-aminopentyl)-β-D-glucopyranoside]

- binding of the NK-1 receptor (NK-1 receptor): did not bind the NK-1 receptors
SMILES: Fc1ccc(OC[C@H]2O[C@@H](OCCc3c[nH]c4ccccc34)[C@H](OCc3ccc4ccccc4c3)[C@@H](OCc3ccccc3)[C@@H]2OCc2ccccc2)cc1 [IV-81, (+)-2-(1H-indol-3-yl)ethyl-3,4-di-O-benzyl-6-O-(4-fluorophenyl)-2-O-(2-naphthyl)methyl-β-D-glucopyranoside]

- Ki (hSSTR4; TABLE 3, read-out: hSSTR 4 Ki): 1900 nM
- Ki (hSSTR3; TABLE 3, read-out: hSSTR 3 Ki): 3300 nM
SMILES: NCCCCCOC[C@@H]1O[C@H](OCCc2c[nH]c3ccccc23)[C@H](OCc2ccccc2)[C@H](OCc2ccccc2)[C@H]1OCc1ccccc1 [IV-22, 2-(1H-Indol-3-yl)ethyl 2,3,4-tri-O-benzyl-6-O-(5'-aminopentyl)-β-L-mannopyranoside]
- hSSTR subtype affinity profile (five hSSTRs): high affinities for hSSTR2 and hSSTR4 and a low affinity for SSTR1

- binding of the NK-1 receptor (NK-1 receptor): did not bind the NK-1 receptors
- IC50 (NK-1 receptor; [6]): 209 nM
SMILES: CC(=O)NCCCCCOC[C@H]1O[C@@H](OCCc2c[nH]c3ccccc23)[C@H](OCc2ccc3ccccc3c2)[C@@H](OCc2ccccc2)[C@@H]1OCc1ccccc1 [IV-92, (+)-2-(1H-indol-3-yl)ethyl-6-O-(N-acetyl-5-aminopentyl)-3,4-di-O-benzyl-2-O-(2-naphthyl)methyl-β-D-glucopyranoside]
